{"source": "ChEMBL document CHEMBL1143063", "about": "“Discovery of 3-piperidinyl-1-cyclopentanecarboxamide as a novel scaffold for highly potent CC chemokine receptor 2 antagonists” (J Med Chem, 2007)", "key": {"[1]": {"molecular_target": "T1, C-C chemokine receptor type 2 (Homo sapiens, UniProt P41597)", "assay": "Displacement of [125]hMCP1 from human CCR2 receptor expressed in human monocytes at 1 uM", "type": "cell-based"}, "[2]": {"molecular_target": "T1, C-C chemokine receptor type 2", "assay": "Displacement of [125]hMCP1 from human CCR2 receptor expressed in human monocytes", "type": "cell-based"}, "[3]": {"molecular_target": "T1, C-C chemokine receptor type 2", "assay": "Antagonist activity against human CCR2 receptor assessed as inhibition of MCP1-induced calcium flux in human monocytes", "type": "functional, cell-based"}, "[4]": {"molecular_target": "C-C chemokine receptor type 2 (Mus musculus) (UniProt P51683)", "sequence (P51683 whole entry, looked up)": "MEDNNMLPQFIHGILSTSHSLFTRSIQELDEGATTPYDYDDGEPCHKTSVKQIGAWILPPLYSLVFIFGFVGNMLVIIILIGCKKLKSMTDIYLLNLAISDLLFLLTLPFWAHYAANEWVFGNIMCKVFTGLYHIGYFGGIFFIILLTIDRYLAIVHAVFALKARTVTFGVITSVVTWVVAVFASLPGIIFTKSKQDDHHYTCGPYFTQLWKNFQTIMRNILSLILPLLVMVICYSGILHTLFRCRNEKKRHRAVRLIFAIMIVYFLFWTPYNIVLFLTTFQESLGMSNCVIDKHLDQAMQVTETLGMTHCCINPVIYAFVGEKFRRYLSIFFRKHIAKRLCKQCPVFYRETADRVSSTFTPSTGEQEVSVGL", "assay": "Displacement of [125]hMCP1 from mouse CCR2 receptor expressed in CHO cells at 1 uM", "type": "cell-based"}, "[5]": {"molecular_target": "C-C chemokine receptor type 2 (Mus musculus, UniProt P51683)", "sequence (P51683 whole entry)": "as the sequence (P51683 whole entry, looked up) above", "assay": "(§1) Displacement of [125]hMCP1 from mouse CCR2 receptor expressed in CHO cells", "type": "cell-based"}, "[6]": {"assay": "Plasma clearance in rat", "type": "ADME, organism-based"}, "[7]": {"assay": "Volume of distribution in rat", "type": "ADME, organism-based", "settings": "in vivo, read-out: Vss"}, "[8]": {"assay": "Half life in rat", "type": "ADME, organism-based", "settings": "in vivo"}, "[9]": {"molecular_target": "C-C chemokine receptor type 5 (Homo sapiens, UniProt P51681)", "sequence (P51681 whole entry)": "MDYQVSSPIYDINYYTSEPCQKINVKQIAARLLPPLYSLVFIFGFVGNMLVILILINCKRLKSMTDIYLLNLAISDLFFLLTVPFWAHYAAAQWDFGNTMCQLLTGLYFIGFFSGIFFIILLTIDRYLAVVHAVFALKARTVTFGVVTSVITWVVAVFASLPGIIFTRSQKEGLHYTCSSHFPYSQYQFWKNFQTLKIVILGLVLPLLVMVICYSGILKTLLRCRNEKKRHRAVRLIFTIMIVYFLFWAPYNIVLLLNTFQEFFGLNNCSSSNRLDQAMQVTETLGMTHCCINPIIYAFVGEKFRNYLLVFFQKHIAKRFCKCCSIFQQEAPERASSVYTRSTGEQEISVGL", "assay": "Displacement of MIP1alpha from CCR5 receptor"}, "[10]": {"assay": "Oral bioavailability in rat", "type": "ADME, organism-based", "settings": "in vivo"}, "[11]": {"molecular_target": "C-C chemokine receptor type 2 (Mus musculus) (UniProt P51683)", "assay": "as §1", "type": "cell-based"}}, "note": "Activity calls are given as the source filed them. The rule behind the calls is not given here."}
{"smiles": "O=C(NCc1cc(C(F)(F)F)cc(C(F)(F)F)c1)[C@H]1CC[C@H](N2CCC(c3ccccc3)CC2)C1", "values": [{"measurement": "Activity", "setting": "[1]", "result": 44, "unit": "%"}]}
{"smiles": "O=C1C(CCN2CCC(c3ccccc3)CC2)CCN1Cc1cc(C(F)(F)F)cc(C(F)(F)F)c1", "note": "(centres undefined)", "values": [{"measurement": "Activity", "setting": "[2]", "result": "inactive"}]}
{"smiles": "O=C(NCc1cc(C(F)(F)F)cc(C(F)(F)F)c1)[C@@H]1CC[C@H](N2CCC(c3ccccc3)CC2)C1", "values": [{"measurement": "Activity", "setting": "[1]", "result": 30, "unit": "%"}]}
{"smiles": "O=C(NCc1cc(C(F)(F)F)cc(C(F)(F)F)c1)C1CCC(N2CCC(c3ccccc3)CC2)C1", "note": "(centres undefined)", "values": [{"measurement": "IC50", "setting": "[2]", "result": 65, "unit": "nM"}]}
{"smiles": "C[C@H]1CN([C@@H]2CC[C@H](C(=O)NCc3cc(C(F)(F)F)cc(C(F)(F)F)c3)C2)CC[C@@]12C=Cc1ccccc12", "values": [{"measurement": "IC50", "setting": "[2]", "result": 1.4, "unit": "nM"}, {"measurement": "IC50", "setting": "[3]", "result": 2.3, "unit": "nM"}, {"measurement": "Activity", "setting": "[4]", "result": 27, "unit": "%"}]}
{"smiles": "O=C1C(CCN2CCC(c3ccccc3)CC2)CCCN1Cc1cc(C(F)(F)F)cc(C(F)(F)F)c1", "note": "(centres undefined)", "values": [{"measurement": "Activity", "setting": "[2]", "result": "inactive"}]}
{"smiles": "C[C@H]1CN([C@@H]2CC[C@](C)(C(=O)NCc3cc(C(F)(F)F)cc(C(F)(F)F)c3)C2)CC[C@@]12C=Cc1ccccc12", "values": [{"measurement": "IC50", "setting": "[5]", "result": 130, "unit": "nM"}, {"measurement": "clearance", "setting": "[6]", "result": 50, "unit": "mL/min/kg"}, {"measurement": "IC50", "setting": "[2]", "result": 1.3, "unit": "nM"}, {"measurement": "Vd", "setting": "[7]", "result": 6, "unit": "L/kg"}, {"measurement": "half-life", "setting": "[8]", "result": 8.1, "unit": "h"}, {"measurement": "IC50", "setting": "[9]", "result": 630, "unit": "nM"}, {"measurement": "bioavailability", "setting": "[10]", "result": 15, "unit": "%"}]}
{"smiles": "O=C(NCc1cc(C(F)(F)F)cc(C(F)(F)F)c1)[C@@H]1CC[C@@H](N2CCC(c3ccccc3)CC2)C1", "values": [{"measurement": "Activity", "setting": "[1]", "result": 25, "unit": "%"}]}
{"smiles": "CC1C[C@@H](N2CC[C@@]3(C=Cc4ccccc43)[C@@H](C)C2)C[C@H]1C(=O)NCc1cc(C(F)(F)F)cc(C(F)(F)F)c1", "note": "(some centres undefined)", "values": [{"measurement": "Activity", "setting": "[11]", "result": "inactive"}, {"measurement": "IC50", "setting": "[2]", "result": "> 1000", "unit": "nM"}]}
{"smiles": "C[C@]1(C(=O)NCc2cc(C(F)(F)F)cc(C(F)(F)F)c2)CC[C@@H](N2CCC3(C=Cc4ccccc43)CC2)C1", "values": [{"measurement": "IC50", "setting": "[2]", "result": 47, "unit": "nM"}, {"measurement": "Activity", "setting": "[4]", "result": 27, "unit": "%"}]}
{"smiles": "O=C(NCc1cc(C(F)(F)F)cc(C(F)(F)F)c1)[C@H]1CC[C@@H](N2CCC3(C=Cc4ccccc43)CC2)C1", "values": [{"measurement": "Activity", "setting": "[11]", "result": "inactive"}, {"measurement": "IC50", "setting": "[2]", "result": 7.5, "unit": "nM"}]}
{"smiles": "O=C(NCc1cc(C(F)(F)F)cc(C(F)(F)F)c1)[C@H]1CC[C@@H](N2CCC(c3ccccc3)CC2)C1", "values": [{"measurement": "IC50", "setting": "[2]", "result": 36, "unit": "nM"}]}
{"smiles": "O=C(NCc1cc(C(F)(F)F)cc(C(F)(F)F)c1)C1CCCC(N2CCC(c3ccccc3)CC2)C1", "note": "(centres undefined)", "values": [{"measurement": "Activity", "setting": "[1]", "result": 23, "unit": "%"}]}
